test: in vitro; conditions: human, hela cells, % viability

Point of comparison: `Cc1ccc(NC(=O)N2CCc3ccccc3C2)cc1` [CBK155309], viability at 28.5 h, 10 µM 93.6%. Against it:
- O=C(O)CCCC(=O)OCc1ccco1 [CBK260933] — higher, 98.1%
- CC(C)Oc1ccc(C(F)(F)F)cc1N [CBK028895C] — higher, 105%
- Cc1cccn2cc(C(=O)NC(C)CN3CCCC3)nc12 (centres unmarked) [CBK281714] — higher, 99.6%
- Cc1cccnc1NC(=O)c1ccc(NCCc2ccccc2)c([N+](=O)[O-])c1 [CBK269543] — higher, 96.1%
- Cc1ccc(Sc2ncccc2C(=O)Nc2ccnn2Cc2cccnc2)cc1C [CBK296980] — higher, 109%
- Nc1nc(N)nc(Cn2c(-c3nonc3N)nc3ccccc32)n1 [CBK263072] — higher, 105%
- O=C1N[C@H]2CCCN(C(=O)c3cc(=O)[nH]c(=O)[nH]3)[C@H]2C/C=C/CCOc2ccccc21 [CBK292065] — higher, 107%
- FC(F)(F)c1ccc(Oc2ccc(-c3noc(-c4cccnc4)n3)cc2)nc1 [CBK270166] — lower, 90.3%
- c1ccc2c(c1)OCC(COc1cncc(N3CCNCC3)n1)O2 (centres unmarked) [CBK172357G] — higher, 101%
- CC(=O)NC1CCN(CC2(c3ccccc3F)CCCC2)CC1 [CBK282591] — lower, 86.7%
- CCn1nc(C)c(-c2cncn2CCCOc2ccccc2C)c1C [CBK281761] — higher, 99.7%
- Cc1c(Cc2ccccc2)c(=O)oc2c(CN3CCCC(C)C3)c(O)ccc12 (centres unmarked) [CBK266995] — lower, 93.2%
- CC(C)(CO)CCCn1cncc1-c1cnn(-c2ccccc2)c1 [CBK281922] — higher, 96.9%
- Cc1nn(C)cc1-c1cncn1CC(C)N1CCC(C)CC1 (centres unmarked) [CBK281789] — lower, 91.4%
- COc1cccc(CN2CC=CCC(C3CCN(c4nc(C)cc(C)n4)CC3)C2=O)c1 (centres unmarked) [CBK285915] — lower, 85.6%
- Cc1c(NC(=O)CN2CCCC(C)C2)ccc2nsnc12 (centres unmarked) [CBK269248] — higher, 97.4%
- O=[N+]([O-])c1ccc(-c2csc(Nc3ccc4c(c3)OCO4)n2)cc1 [CBK262448B] — higher, 100%
- COc1ccc(CC(=O)Nc2nc(OC)cnc2-c2ccoc2)cc1 [CBK145435] — lower, 92.8%
- Cc1cc(N2CCC(N3CCN(C)CC3)CC2)nc(N)n1 [CBK167964] — higher, 94.3%
- CC(=O)Nc1ccc(CN2CCC[C@H]2c2nc(-c3ccnc(NS(C)(=O)=O)c3)no2)cc1 [CBK288888] — higher, 109%
- CN(C(=O)Cc1ccsc1)c1nc2c(s1)CCc1c-2cnn1C [CBK281929] — lower, 82.4%
- Cc1cc(C2CCCCCN2C(=O)c2ccc(F)cc2)on1 (centres unmarked) [CBK285447] — higher, 106%
- COc1cc(C(=O)N2CCC3(CC2)NC(=O)c2cc(Br)ccc2O3)ccc1C [CBK149464] — lower, 92.3%
- CN(C)c1ccccc1-c1cc(Nc2ccc(C(C)(C)C)cc2)ncn1 [CBK090872] — higher, 95.4%
- Oc1ccc(Nc2cc(-c3ccccc3)ncn2)cc1 [CBK291157] — lower, 79.8%
- CC(=O)N1CCC2(CCCC[C@H]3CN(C(C)C)CC[C@@H]3NC(=O)CNC2=O)CC1 [CBK292133] — higher, 102%
- CC(=O)NCC(=O)N1C[C@@H]2CCCCN(Cc3cccc(F)c3)[C@@H]2C1 [CBK285515] — lower, 90.1%
- CCc1nc(CN2CCCC(NCc3ccc(C(N)=O)cc3)C2)no1 (centres unmarked) [CBK305373] — higher, 94.2%
- O=C(O)C1Nc2c(Cl)cc(Cl)cc2C2C=CCC12 (centres unmarked) [CBK077855] — lower, 78.5%
- O=C(NCc1ccc2c(c1)OCO2)c1cnc2sccn2c1=O [CBK287446] — lower, 91%
- Cc1cc(C(=O)NCCn2ccnc2C)c2cccc(Cl)c2n1 [CBK282460] — higher, 95.6%
- O=C(Nc1ccc2cccc(O)c2n1)c1cc[nH]c1 [CBK122743] — higher, 94.9%
- COc1ccccc1N1C(=O)CC(SC(=N)N/N=C(\C)c2ccc(O)cc2)C1=O (centres unmarked) [CBK262766] — higher, 100%
- O=C1CCCN1CC#CCN1CCN(Cc2ccccc2)CC1 [CBK023770C] — higher, 96.2%
- CCN1CCN(c2ccc(Nc3ccnc4cc5ccccc5cc34)cc2)CC1 [CBK261130] — lower, 79.8%
- CC(=O)N1CCc2cc(C(=O)CN3CCOCC3)ccc21 [CBK291105] — lower, 89.2%
- O=C(NCCN1CCOCC1)c1cccc(S(=O)(=O)N2CCCCCC2)c1 [CBK266668] — higher, 97.3%
- CN(C)c1cccc(-c2cc(Nc3ccc4c(c3)OCCO4)ncn2)c1 [CBK090808] — lower, 66.3%
- OCCCNC(c1ccccc1)c1ccc(O)cc1 (centres unmarked) [CBK266329] — higher, 97.2%
- O=C1CC2(CCC3C(C(=O)N4CCCC4)C32)Oc2ccccc21 (centres unmarked) [CBK284969] — higher, 104%
- CCOC(=O)c1cnn2c(O)cc(CN(Cc3ccco3)C3CC3)nc12 [CBK305613] — lower, 82.3%
- CCOc1ccc(-n2c(SCc3nc(-c4ccc(C)cc4)no3)nnc2-c2ccncc2)cc1 [CBK268315] — higher, 98.3%
- OCCc1ccc(Nc2cc(-c3cc4ccccc4s3)ncn2)cc1 [CBK090770] — higher, 103%
- CSc1ccccc1C(=O)Nc1nccs1 [CBK288225] — lower, 88.7%
- Cc1cccc(NS(=O)(=O)c2cc(C(=O)NCc3ccccn3)ccc2C)c1 [CBK268767] — lower, 70.7%
- COC(=O)Nc1ccc2c(c1)N(C(=O)CCN(C)C)c1ccccc1CC2 [CBK262972C] — lower, 87.2%
- O=c1[nH]cc(-c2ccccc2)cc1CNCC1Cc2ccccc2O1 (centres unmarked) [CBK284772] — lower, 92.3%
- c1ccc(CN2CCN(c3ccc(Nc4cc(-c5ccncc5)ncn4)cc3)CC2)cc1 [CBK037727] — lower, 92.3%
- Cc1ccc(CN(CCCn2ccnc2)Cc2ccncc2)o1 [CBK283101] — higher, 108%
- O=C1c2ccccc2C(=O)N1c1ccc(S(=O)(=O)NCCCO)c2ccccc12 [CBK262509] — higher, 105%
- CCc1nc2ccc(C(=O)N3CCN(c4ccccc4)CC3)cn2c1N(C)C(=O)Nc1ccccc1OC [CBK145886] — higher, 96.2%
- O=C(NCC1CCCO1)c1ccc(NC(=O)C2CC=CCC2C(=O)O)cc1 (centres unmarked) [CBK266335] — higher, 95%
- O=C(O)CSC1=CC(=O)N(c2ccc(Br)cc2)C1=O [CBK287263] — lower, 81.5%
- CC(C)c1ccc(C(C)NC(=O)Cn2cc(C(=O)NC3CCCCC3)ccc2=O)cc1 (centres unmarked) [CBK286097] — higher, 100%
- O=C(O)COc1ccc(/C=C/c2nc3n(n2)C=COc2ccccc2-3)cc1 [CBK286650] — lower, 80.2%
- N#Cc1ccccc1/C=N/NC(=O)COc1ccc(-c2cc(-c3ccccc3)c3cc(Cl)ccc3n2)cc1 [CBK263337] — lower, 89.1%
- CN(CCOC(=O)c1cccs1)C(C)(C)C [CBK027559C] — lower, 88.6%
- O=C(NCCC1=CCCCC1)Nc1ccc2ccccc2c1 [CBK044195] — higher, 104%
- Cc1ccc2[nH]c3c(c2c1)CCCC3NCC(O)Cc1ccccc1 (centres unmarked) [CBK263154] — lower, 87.2%
- Clc1ccc(-c2nn3c4cc(N5CCNCC5)ccc4nc3c3ccccc23)cc1 [CBK268319] — higher, 102%
- O=c1c2cc(F)ccc2nc2n1CCN(Cc1ccccc1)CC2 [CBK285300] — higher, 94.5%
- OCCOc1ccccc1N1CCOCC1 [CBK001767C] — higher, 116%
- COc1ccc(-c2cnc(NCC3CC3)c(C(=O)NCCc3c[nH]c4ccccc34)c2)cc1 [CBK076349] — higher, 96.4%
- Fc1ccc2c(ccn2CCCN2CCN(c3ccncc3)CC2)c1 [CBK043645G] — lower, 89.4%
- CO/C(=N\S(=O)(=O)c1ccccc1)c1ccccc1 [CBK023221] — lower, 89.4%
- COC(=O)c1cc(NC(=O)NCCC2=CCCCC2)cc(C(=O)OC)c1 [CBK044120] — lower, 90.9%
- CC(C)c1cc(C(=O)N(CCO)CC2CC3C=CC2C3)n(C)n1 (centres unmarked) [CBK282164] — lower, 84.6%
- Nc1nc(OCc2ccncc2)cnc1-c1ccc(OC(F)(F)F)cc1 [CBK145121] — higher, 99.8%
- O=C(CSc1nnc(-c2ccncc2)s1)Nc1ccc(Cl)cc1 [CBK270069] — lower, 87.9%
- CCCCn1c(SCc2nc(-c3cccc(Cl)c3)no2)n[nH]c1=O [CBK295356] — higher, 116%
- O=C(O)C1(Oc2ccc3ccccc3c2)CCN(C2CCNCC2)CC1 [CBK306615] — higher, 108%
- COc1ccccc1N(CC(O)Cn1nc(C)cc1C)S(=O)(=O)c1ccccc1 (centres unmarked) [CBK264546] — higher, 100%
- O=C(NCCc1ccc(O)cc1)c1cncc(-c2ccc(C(=O)N3CCOCC3)cc2)c1 [CBK158620] — higher, 112%
- O=C(CSCc1ccccc1)Nc1ccc2c3c(cccc13)CC2 [CBK264916] — higher, 107%
- CN1CCC(CN(C)CC2CCCN(Cc3ccccc3)C2)C1 (centres unmarked) [CBK282946] — lower, 90.7%
- Cc1ccc(C)n1-c1cccc(C(=O)N2CCn3cnnc3C2)c1 [CBK283646] — higher, 96.2%
- Cc1nc2c(c(=O)[nH]1)CCN(Cc1[nH]c3ccc(F)cc3c1C)C2 [CBK283996] — lower, 89.4%
- CCOc1cccc(-c2cncc(N[C@H](C)c3ccccc3)n2)c1 [CBK066042] — higher, 103%
- CC[C@H]1CN(C(C)=O)CC[C@H]1CC(=O)NCc1ccc2c(c1)OCO2 [CBK289131] — lower, 89.2%
- CC1CCC(C(N)=O)CN1c1cc(Br)ccn1 (centres unmarked) [CBK304856] — higher, 94.9%
- COc1ccc(CN2CCC(N3CCN(c4ccccc4F)CC3)CC2)cc1OCc1ccccc1 [CBK264720G] — higher, 105%
- CC(=O)N1CCc2cc(C(=O)CN3CCC(c4ccccc4)C3)ccc21 (centres unmarked) [CBK282931] — higher, 98%
- Cc1sc2nc(SCCCC(=O)NCCO)nc(N)c2c1C [CBK264482] — higher, 96.2%
- O=S(=O)(Nc1nc2ccccc2nc1Nc1ccccc1)c1ccccc1 [CBK260953] — higher, 94.5%
- COc1cccc([C@H]2CN(C(C)=O)[C@@H]3CCN(C4CCCC4)C[C@H]23)c1 [CBK283375] — lower, 89.7%
- CC1(C)CC(NC(=O)CCc2cc(C(C)(C)C)c(O)c(C(C)(C)C)c2)CC(C)(C)N1 [CBK261986] — lower, 88.9%
- N#Cc1ccc(Sc2cccc(F)c2)c(F)c1 [CBK002909] — higher, 115%

same assay, conditions: human, hela cells, % viability, bulk resorufin, single well

`O=C1NC(=O)C(CCc2ccccn2)(CCc2ccccn2)C(=O)N1c1ccc(F)cc1` [CBK268816] gave a viability at 28.5 h, 10 µM of 93%.

— article PMC12040169 (PLOS Biology, 2025)
